What was measured:
[1] = wn = mass fraction of the nth substance listed; details: Pendant drop shape
[2] = Pendant drop shape

[Cl-].[Na+] [sodium chloride] + O
surface tension liquid-gas [mN/m], [1]
Details	w1 = 0.025	w1 = 0.05	w1 = 0.075	w1 = 0.1	w1 = 0.125	w1 = 0.15	w1 = 0.175	w1 = 0.2	w1 = 0.225	w1 = 0.25
293.15 K	73.42	74.09	74.85	75.6	76.54	77.52	78.7	79.82	81.03	81.95
298.15 K	72.63	73.32	74.15	74.9	75.8	76.7	77.82	78.85	80.32	81.41
303.15 K	71.83	72.56	73.35	74.17	75.09	76.11	77.2	78.26	79.77	80.8
313.15 K	70.33	71.12	71.95	72.81	73.86	74.9	75.98	76.99	78.54	79.7
323.15 K	68.93	69.91	70.62	71.32	72.46	73.55	74.68	75.71	77.32	78.45
333.15 K	67.21	68.24	69.21	70.14	71.18	72.22	73.43	74.52	76.01	77.14

O [water]
[2]
Details	surface tension liquid-gas [mN/m]
293.15 K	72.75
298.15 K	71.97
303.15 K	71.15
313.15 K	69.55
323.15 K	67.9
333.15 K	66.17
343.15 K	64.39
353.15 K	62.61

Source: the NIST ThermoML archive (doi:10.1021/acs.jced.7b00503)
